The test system of the assay is Zebrafish larvae. The assay is described as follows: Zebrafish larvae survival assay under hydrogen peroxide oxidative stress. The assay is classed as in vivo, zebrafish (AB strain). The settings on record: for larvae survived: compound 12 h before H2O2, survival after 24 h. As for the experimental part: Zebrafish larvae provide a suitable vertebrate model for studying the oxidative stress […]. […] Survival assays were performed according to a protocol described previously^36 with some modifications. Briefly, wild-type zebrafish larvae
(AB strain, ZFIN ID: ZDB-GENO-960809-7) were used. At 3.5 days post fertilization (dpf), 24 larvae per condition were placed in a 60-mm petri dish with 5 ml of egg water (0.6 g/L Ocean sea salt, Tecniplast). Compounds of interest were directly added into the egg water for 12 h. Subsequently, compounds were removed at 4 days post fertilization (dpf4) and larvae were transferred to a 96-well plate in a volume of 200 μl fresh egg water containing 2.5 mM hydrogen peroxide (H2O2; Sigma Merck). Survival was monitored after 24 h of treatment.

For the molecule `NCC(=O)O` [L-glycine], for the setting “vehicle+2.5 mM H2O2+500 μM L-glycine”, the larvae survived is given as approximately 10%. Consider `C[S+]([O-])CCCCN=C=S` (stereo not drawn) [Sfn, 4-methylsulfinylbutyl isothiocyanate], for which the “Predicted (LS) mean diff” value (survival, comparison 0 μM vs. treated group, 2.5 mM H2O2, 2 way ANOVA, Tukey's) was −7.077. The molecule also yielded a larvae survived (vehicle+2.5 mM H2O2+1 μM Sfn) of approximately 10%.

These data come from patent publication US20240366551A1, “MIXTURES AND COMPOSITIONS COMPRISING SULFORAPHANE AND GLYCINE” (SOCIETE DES PRODUITS NESTLE S.A., priority 2021, published 2024).
